Reference: patent US11396522B2, “Bis-acetal-based substrates for imaging exo-glycosidase activity” (ALECTOS THERAPEUTICS INC., priority 2017, dated 2022)
Blank lines part the entries; values can stand above or below the compound they belong to.

Key:
[1] = target: T1, human O-GlcNAcase (hOGA) (Homo sapiens, UniProt O60502); settings: literature value (ref 39); cited from earlier work
T1 construct: started by addition of hOGA (WT, Full-length, expressed in E. coli. as previously described); made in house; host or cells: E. coli
T1 sequence (O60502 1-916): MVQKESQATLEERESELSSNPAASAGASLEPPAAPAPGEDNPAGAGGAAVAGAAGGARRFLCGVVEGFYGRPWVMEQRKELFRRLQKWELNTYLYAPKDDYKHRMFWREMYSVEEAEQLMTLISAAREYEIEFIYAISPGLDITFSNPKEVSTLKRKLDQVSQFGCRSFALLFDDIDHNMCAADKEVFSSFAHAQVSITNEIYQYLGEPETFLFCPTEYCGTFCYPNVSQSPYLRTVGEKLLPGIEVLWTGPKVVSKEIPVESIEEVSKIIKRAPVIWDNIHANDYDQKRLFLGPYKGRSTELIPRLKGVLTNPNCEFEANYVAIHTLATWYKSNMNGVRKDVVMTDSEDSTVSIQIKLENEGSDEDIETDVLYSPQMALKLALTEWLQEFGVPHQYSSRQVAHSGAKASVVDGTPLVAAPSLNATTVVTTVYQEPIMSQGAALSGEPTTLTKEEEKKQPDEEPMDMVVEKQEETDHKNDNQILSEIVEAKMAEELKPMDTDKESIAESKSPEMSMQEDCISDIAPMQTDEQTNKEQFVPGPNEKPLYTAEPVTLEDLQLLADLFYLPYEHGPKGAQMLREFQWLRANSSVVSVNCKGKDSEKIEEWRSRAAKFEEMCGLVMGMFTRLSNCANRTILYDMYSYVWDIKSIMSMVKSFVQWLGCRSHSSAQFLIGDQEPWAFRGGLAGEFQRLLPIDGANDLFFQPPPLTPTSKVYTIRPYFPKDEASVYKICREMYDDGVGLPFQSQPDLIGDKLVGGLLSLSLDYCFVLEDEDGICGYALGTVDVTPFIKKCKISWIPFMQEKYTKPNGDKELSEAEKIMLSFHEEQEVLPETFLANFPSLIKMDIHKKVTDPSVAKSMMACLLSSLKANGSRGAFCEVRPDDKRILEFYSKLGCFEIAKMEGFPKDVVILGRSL

[2] = target: T2, hOGA (Homo sapiens, UniProt O60502); experiment: Turnover by hOGA within SK-N-SH lysate; assay type: biochemical
T2 construct: started by addition of hOGA (WT, Full-length, expressed in E. coli. as previously described); made in house; host or cells: E. coli
T2 sequence (O60502 1-916): T1 sequence (O60502 1-916)
Description: For cell lysates experiments, SK-N-SH cells were cultured in EMEM media supplemented with 10% FBS and Penicillin/Streptomycin antibiotics. Cells were collected, washed with PBS and lyzed using ice-cold NP-40 lysis buffer (TRIS-HCl 50 mM pH 7.4, NP-40 1%, NaCl 150 mM). After centrifugation, the supernatant was diluted in PBS. The quantity of lysate used in each measurement well (384-well plate) was equivalent to 25000 cells. […] Reactions were started by adding the substrate at a final concentration of 20 μM. This experiment was carried out in quadruplicates and the rates were determined by establishing a standard curve for EDANS fluorescence in the SK-N-SH lysate.
To evaluate the compatibility of the BABS design with complex cellular extracts, we also measured the turnover of GlcNAc-Br-BABS in SK-N-SH cell lysate in the presence of increasing concentrations of hOGA (FIG. 9). […] Buffer control consists of PBS supplemented to lysis buffer. […] Error bars represent standard deviation over quadruplicate.

[3] = pH stability of Glyco-BABS; assay type: physicochemical; settings: 5 μM, up to 72 h, pH 2 to 10
Excerpt: One concern with the Glyco-BABS design was the known lability of acetals under acidic conditions that has been exploited in pH-sensitive prodrugs or linkers for drug delivery.^41,42 However, we recognized that carbohydrate anomeric acetals are chemically distinct from regular acetals. Due to stabilization by the endocyclic oxygen, we expected these bis-acetals would show stability across a range of physiological pH values. We therefore assessed the stability of the bis-acetal motif toward acid and base hydrolysis (FIG. 8). To do so, we tested the pH stability of 5 μM of GlcNAc-Br-BABS 1, GlcNAc-OH-BABS 2, Glc-OH-BABS 6 and Glc-H-BABS 7 at different pH over time. We prepared solutions at various pH by mixing 0.2 M KCl+0.1 M HCl with 0.2 M KCl+0.1 M KOH. Fluorescence of EDANS and Glyco-BABS solutions (5 μM, 45 μL) at different pH was measured at different time points in Nunc 384-well plates using a SpectraMax i3× plate reader. Data (triplicates) support the highly efficient quenching and the stability of these substrates over a wide range of pH.

[4] = target: T2, hOGA; experiment: Interrupted assay for determination of hemiacetal breakdown; assay type: biochemical; settings: hemiacetal generated from the substrate; hOGA stopped after 1 min with Thiamet-G 100 μM
Description: For some experiments, fluorescence kinetic assays were performed using a Varian Cary Eclipse Spectrophotometer set for 335/493 nm excitation/emission wavelengths. Slits were set at 10 nm and the detector was set on Medium voltage. Enzymatic reactions with human OGA were carried out in PBS at 37° C. and were started by addition of hOGA (WT, Full-length, expressed in E. coli. as previously described) in a total volume of 160 μL (Starna sub-micro Fluorometer cuvette). For measurements of rates using different concentrations of substrates, a hOGA concentration of 100 nM was used. For hOGA titration, 25 μM of Glyco-BABS were added to various concentration of hOGA. For interrupted assay, reaction was started by addition of hOGA (680 nM final) in solutions of GlcNAc-BABS in PBS. […] For hemiacetal breakdown rate measurements, data after Thiamet-G addition was extracted and fitted using Prism software. EDANS standard curve was established using endpoint fluorescence measurements of serial dilutions of EDANS in the relevant buffer using the same instrument parameters. Inner-Filter effect measurements were carried out in cuvette by measuring fluorescence of several concentrations of EDANS in presence of various concentrations of GlcNAc-BABS. Kinetics with Glc-BABS and GBA enzymes (GBA1 and GBA3 purchased from R&D Systems), kinetics with GALC (R&D systems) and Gal-BABS, pH stability, quenching efficiency, some inner-filter effect experiments and lysates experiments were carried out using a Molecular Devices SpectraMax i3× plate reader. Emission/Excitation wavelengths were set at 350 and 490 nm respectively for EDANS/DABCYL Glyco-BABS and at 565 and 610 nm respectively for TAMRA/BHQ2 Glyco-BABS. Fluorescence measurements were performed using Costar 96-well black plates or Nunc 384-well black plates after sample preparation in 96-well mixing plates. For GBA1, the continuous assay was performed in citrate buffer (50 mM, pH 5.5) in the presence of 0.1% Triton, 1 mg/mL BSA and 0.14% taurodeoxycholate at 25° C. […]

Compound: CO[C@@H]1O[C@H](CO)[C@@H](O)[C@H](O)[C@H]1NC(C)=O [methyl β-D-N-acetylglucopyranoside]
second order rate constant with hOGA [1]: 440 M⁻¹ s⁻¹

turnover in SK-N-SH cell lysate with added hOGA ([2]; 20 μM substrate, 25° C., increasing hOGA): efficiently processed within lysates | pH stability (increase of fluorescence) [3]: no significant increase of fluorescence | first order rate constant (k3) for hemiacetal breakdown [4]: 0.01 s⁻¹
Compound: CC(=O)N[C@H]1[C@H](O[C@@H](OCCOCCn2cc(CNC(=O)c3ccc(/N=N/c4ccc(N(C)C)cc4)cc3)nn2)[C@@](C)(Br)C(=O)NCCNc2cccc3c(S(=O)(=O)O)cccc23)O[C@H](CO)[C@@H](O)[C@@H]1O [Compound 1, 5-((2-((2R,3R)-3-(((2S,3R,4R,5S,6R)-3-acetamido-4,5-dihydroxy-6-(hydroxymethyl)tetrahydro-2H-pyran-2-yl)oxy)-2-bromo-3-(2-(2-(4-((4-((E)-(4-(dimethylamino)phenyl)diazenyl)benzamido)methyl)-1H-1,2,3-triazol-1-yl)ethoxy)ethoxy)-2-methylpropanamido)ethyl)amino)naphthalene-1-sulfonic Acid]

inhibition of substrate turnover in SK-N-SH lysate ([2]; Thiamet-G 200 μM, substrate GlcNAc-Br-BABS 1): completely inhibits
Compound: CCNC1=N[C@@H]2[C@@H](O)[C@H](O)[C@@H](CO)O[C@@H]2S1 [Thiamet-G, (3aR,5R,6S,7R,7aR)-2-(ethylamino)-3a,6,7,7a-tetrahydro-5-(hydroxymethyl)-5H-Pyrano[3,2-d]thiazole-6,7-diol, reference compound]
